The subject of the data set is rodent carcinogenicity bioassays, tumor incidence. The experiment in a line: CCRIS carcinogenicity studies. Particulars: Species: MOUSE. An outline of the steps:
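NCI-built, expert-reviewed records of carcinogenicity and related test outcomes (mutagenicity, tumor promotion/inhibition) compiled from published and report sources, historical span 1985-2011, not updated.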

The source made the active and inactive calls. No rule for the calls is given here.

As for `c1ccc2c(c1)[nH]c1ccccc12`, the carcinogen call (Strain/Sex: B6C3F1/FEMALE, Route: ORAL, Dose: 0.15, 0.3, 0.6% IN DIET FOR 96 WK, Dose: 0.15, 0.3, 0.6% IN DIET FOR 96 WK, Tumor Site: Type of Lesion: LIVER: HEPATOCELLULAR CARCINOMA) was “active; positive”; the carcinogen call (Strain/Sex: B6C3F1/MALE, Route: ORAL, Dose: 0.15, 0.3, 0.6% IN DIET FOR 96 WK, Dose: 0.15, 0.3, 0.6% IN DIET FOR 96 WK, Tumor Site: Type of Lesion: FORESTOMACH: PAPILLOMA, SQUAMOUS CELL CARCINOMA, LIVER: HEPATOCELLULAR CARCINOMA) was “active; positive”; the carcinogen call (Strain/Sex: CD-1/FEMALE, Route: INTRAPERITONEAL, Dose: 0, 1.75 UMOL/MOUSE (TOTAL DOSE) ADMINISTERED DURING DAYS 1, 8, AND 15 OF LIFE (STUDY DURATION: 52 WK)) is “inactive; negative”; the carcinogen call (Strain/Sex: CD-1/MALE, Route: INTRAPERITONEAL, Dose: 0, 1.75 UMOL/MOUSE (TOTAL DOSE) ADMINISTERED DURING DAYS 1, 8, AND 15 OF LIFE (STUDY DURATION: 52 WK)) is “inactive; negative”.

The values are drawn from PubChem BioAssay AID1259411 (Chemical Carcinogenesis Research Information System (CCRIS), 2018).
